Each block holds one compound with its values, some of them ahead of it.
Tests used:
[1] = Metabolic stability in dog liver microsomes; type: in vitro ADME; conditions: pH 7.4, read-out: Liver microsomal clearance (t1/2), Dog
Experimental: (§1) Microsomal stability. Microsomal stability assays were conducted on a Beckmann Biomek FXp laboratory automation system. The liver microsomal incubation mixture consisted of liver microsomes (0.5 mg microsomal protein/mL), the Compound (1 μM), MgCl2 (3 mM), and EDTA (1 mM) in potassium phosphate buffer (100 mM, pH 7.4). Midazolam and Ketanserin were used as the assay control substrates. The reaction was initiated with the addition of an NADPH regeneration solution (1.3 mM NADPH) and maintained at 37° C. with shaking. At five time points ranging from 0 to 45 min, aliquots (50 μL) were removed and quenched with acetonitrile (100 μL) containing an internal standard (imipramine). After vortex and centrifugation, samples were analyzed by LC-MS/MS. Calculation of the in vitro half-lives and clearance followed literature guidelines.

[2] = Metabolic stability in rat liver microsomes; type: in vitro ADME; conditions: pH 7.4; Sprague Dawley rat liver microsomes 0.5 mg/mL, NADPH, 45 minutes, 37° C.; read-out: Half-life in liver microsomes (t1/2), Rat
Experimental: as §1

[3] = Metabolic stability in human liver microsomes; type: in vitro ADME; conditions: pH 7.4; human liver microsomes 0.5 mg/mL, NADPH, 45 minutes, 37° C.; read-out: Half-life in liver microsomes (t1/2), Human
Experimental: as §1

[4] = test system: DOHH2 cells; test: DOHH2 proliferation assay (CellTiter-Glo, day 7); type: cell-based; conditions: Homo sapiens, DOHH-2, 168 h; viability by CellTiter-Glo on day 7
Experimental: On day 1, 1000 DOHH2 cells were seeded to a 384-well TC plate (PerkinElmer #6007680) in 40 μL RPMI 1640 media, followed by the addition of CBP inhibitors except for column 13 where 3.3 μM staurosporine was added as negative control. DMSO was 0.1% in all the wells. The cells were lysed in and counted for viability by 40 μL CellTiter-Glo (Promega #G9243) on day 7. The luminescent signal was quantified by Envision Multilabel plate reader and the standard dose response curves were fitted by Genedata Screener software using the variable-slope model: Signal=Signalnegative control+(SignalDMSO control−Signalnegative control)/(1+(IC50/Dose)^Hill slope).
(§2) Only Signal and Dose in the equation were treated as known values.

[5] = Metabolic stability in monkey liver microsomes; type: in vitro ADME; conditions: pH 7.4, read-out: Liver microsomal clearance (t1/2), Monkey
Experimental: as §1

[6] = In vivo pharmacokinetics after a single dose, rat; conditions: male, plasma, Sprague-Dawley rat
Experimental: (§3) IV (intravenous) doses were formulated in 20% DMSO+60% PEG400+20% water. PO (per os) doses were formulated in 0.5% methylcellulose in water.
Rat: Male rats (SD strain, purchased from Shanghai JH Laboratory Animal Co. LTD) weighing 200-300 g were used for studies. Animals were fasted overnight and fed 4 h postdose. Water was available ad libitum for all animals. Test article was dosed via dorsal foot vein (IV doses) or oral gavage (PO doses). Blood samples were collected via tail vein from all animals at predose and at 0.083, 0.25, 0.5, 1, 2, 4, 8, and 24 h postdose into tubes containing the anticoagulant K2EDTA. Plasma was separated from the blood by centrifugation at 4° C. and stored at −70° C. until analysis. Test article concentrations in plasma were quantified using a liquid chromatography with tandem mass spectrometry (LC-MS/MS) method.

[7] = In vivo pharmacokinetics after a single dose, mouse; conditions: female CD-1 mice, single dose 0.2 or 0.3 mg/kg IV; for Vd: read-out: Vss
Experimental: as §3
Mouse: Female mice (CD1 strain, purchased from Shanghai JH Laboratory Animal Co. LTD) weighing 20-30 g were used for studies. Food and water were available to all animals ad libitum. The test article was dosed via tail vein (IV doses) or oral gavage (PO doses), respectively. Blood samples were collected from all animals at predose and at 0.083, 0.25, 0.5, 1, 2, 4, 8, and 24 h postdose into tubes containing the anticoagulant K2EDTA (3 animals per time point with 3 time points collected per animal). Plasma was separated from the blood by centrifugation at 4° C. and stored at −70° C. until analysis. Test article concentrations in plasma were quantified using a liquid chromatography with tandem mass spectrometry (LC-MS/MS) method.

[8] = Metabolic stability in mouse liver microsomes; type: in vitro ADME; conditions: pH 7.4; CD-1 mouse liver microsomes 0.5 mg/mL, NADPH, 45 minutes, 37° C.; read-out: Half-life in liver microsomes (t1/2), Mouse
Experimental: as §1

[9] = target: T1, BRD4 (49-170) bromodomain (Homo sapiens, UniProt O60885); test: BRD4 AlphaScreen assay; type: binding; conditions: biotin-H4 (1-21) Ac-K5/8/12/16 peptide
T1 construct: The GST tagged bromodomains of CBP (1081-1197) and BRD4 (49-170) were obtained from BPS Bioscience; purchased BPS Bioscience
Experimental: (§4) Specific binding of the CBP or BRD4 bromodomain to the acetylated peptide derived from the H4 histone substrate (tetra acetylated H4 (1-21) Ac-K5/8/12/16) was measured in absence or presence of inhibitors. The GST tagged bromodomains of CBP (1081-1197) and BRD4 (49-170) were obtained from BPS Bioscience and binding to the biotinylated H4 (1-21) Ac-K5/8/12/16 (AnaSpec. 64989) was assessed via AlphaScreen technology (Perkin Elmer).
(§5) The binding of 2.5 nM of BRD4 (49-170) to 10 nM biotin-H4 (1-21) Ac-K5/8/12/16 (AnaSpec. 64989) was assessed following the same procedure described for the CBP assay. The standard dose response curves were fitted by Genedata Screener software using the variable-slope model: Signal=Signalnegative control+(SignalDMSO control−Signalnegative control)/(1+(IC50/Dose)^Hill slope).
as §2

[10] = In vivo pharmacokinetics after a single dose, monkey; conditions: male, plasma, Cynomolgus monkey
Experimental: as §3
(§6) Monkey: Male Cynomolgus monkeys (purchased from Hainan Jingang Biotech. Co., Ltd) weighing 3-5 kg were used for studies. Animals were fasted overnight and fed 4 h postdose. Test article was administered to monkeys via the cephalic vein (IV doses) or nasal gavage (PO doses). Blood samples were collected via the saphenous vein or cephalic vein from all animals at predose and 0.083, 0.25, 0.5, 1, 2, 4, 8, and 24 h postdose into tubes containing the anticoagulant K2EDTA. Plasma was separated from the blood by centrifugation at 4° C. and stored at −70° C. until analysis. Test article concentrations in plasma were quantified using a liquid chromatography with tandem mass spectrometry (LC-MS/MS) method.

[11] = In vivo pharmacokinetics after a single dose, dog; conditions: male, plasma, Beagle dog
Experimental: as §3
as §6, with “Dog:” for “Monkey:”, “Beagle dogs” for “Cynomolgus monkeys”, “Beijing Marshall Biotechnology” for “Hainan Jingang Biotech.”, “7-10” for “3-5”, “dogs” for “monkeys”, “oral” for “nasal”

[12] = target: T2, GST-CBP (1081-1197) bromodomain (Homo sapiens, UniProt Q92793); test: CBP AlphaScreen assay; type: binding; conditions: biotin-H4 (1-21) Ac-K5/8/12/16 peptide
T2 construct: The GST tagged bromodomains of CBP (1081-1197) and BRD4 (49-170) were obtained from BPS Bioscience; purchased BPS Bioscience
Experimental: as §4
5 nM GST-CBP (1081-1197) and 20 nM biotin-H4 (1-21) Ac-K5/8/12/16 (AnaSpec. 64989) were incubated with varying concentrations of CBP inhibitors in 15 μL of buffer containing 50 mM HEPES 7.5, […], 1 mM TCEP, and 0.003% Tween-20. After 30 minutes incubation at room temperature, 15 μL of detection buffer (BPS Bio. 33006) containing 7 μg/mL of Glutathione AlphaLisa acceptor beads (Perkin Elmer AL109) and 14 μg/mL of Streptavidin donor beads (Perkin Elmer 676002) was then added to the previous mixture. The reaction was incubated for an additional 2 hours at room temperature, and the AlphaScreen signal was quantified using the Envision Multilabel plate reader. As negative control, GST-CBP (1081-1197) was incubated with the non-acetylated biotin-H4 (1-21) peptide (AnaSpec. 62555) and in presence of 0.25% of final DMSO concentration.
as §5, §2

[13] = mouse, plasma, read-out: Clearance (converted)

T2 sequence (Q92793 1081-1197): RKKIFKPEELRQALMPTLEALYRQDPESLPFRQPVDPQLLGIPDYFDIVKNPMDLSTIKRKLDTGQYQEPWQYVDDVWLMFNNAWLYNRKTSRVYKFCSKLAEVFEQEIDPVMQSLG

half-life at 1 μM [1]: 1.05 h
half-life at 1 μM [2]: 3.22 h
half-life at 1 μM [3]: 3.97 h
half-life at 1 μM [5]: 0.383 h
clearance ([6]; 1 mg/kg IV): 8.92 mL/min/kg
half-life ([6]; 1 mg/kg IV): 2.99 h
Vd ([6]; 1 mg/kg IV, read-out: Vss): 0.908 L/kg
AUC(0-t) ([6]; 3 mg/kg PO): 2.63 µM·h
Cmax ([6]; 3 mg/kg PO): 1350 nM
bioavailability ([6]; 3 mg/kg PO): 25.2%
clearance [7]: dramatic decrease
t1/2 [7]: increase
half-life ([7]; mouse, plasma): 4.47 h
clearance [7, 13]: 3.28 mL/min/kg
Vd ([7]; mouse, plasma): 0.342 L/kg
half-life at 1 μM [8]: 69.8 h
IC50 [9]: 4790 nM
clearance ([10]; 1 mg/kg IV): 12.3 mL/min/kg
half-life ([10]; 1 mg/kg IV): 1.65 h
Vd ([10]; 1 mg/kg IV, read-out: Vss): 1.06 L/kg
AUC(0-t) ([10]; 3 mg/kg PO): 2.49 µM·h
Cmax ([10]; 3 mg/kg PO): 773 nM
bioavailability ([10]; 3 mg/kg PO): 28.2%
clearance ([11]; 1 mg/kg IV): 6.72 mL/min/kg
half-life ([11]; 1 mg/kg IV): 3.42 h
Vd ([11]; 1 mg/kg IV, read-out: Vss): 1.57 L/kg
AUC(0-t) ([11]; 3 mg/kg PO): 10.8 µM·h
Cmax ([11]; 3 mg/kg PO): 1870 nM
bioavailability ([11]; 3 mg/kg PO): 78.9%
IC50 [12]: 3 nM
Compound: CNC(=O)N1CCn2c(C3CCOCC3)nc(-c3cccc4nc(-c5cnc(C)s5)c(C(F)F)cc34)c2C1 [Compound 1, 1-(3-(difluoromethyl)-2-(2-methylthiazol-5-yl)quinolin-5-yl)-N-methyl-3-(tetrahydro-2H-pyran-4-yl)-5,6-dihydroimidazo[1,5-a]pyrazine-7(8H)-carboxamide]
IC50 [4]: 29 nM

IC50 [9]: 1930 nM
IC50 [12]: 2 nM
Compound: CC(=O)N1CCn2c(C3CCOCC3)nc(-c3cccc4nc(-c5cnc(C)s5)c(C(F)F)cc34)c2C1 [Compound 2]
IC50 [4]: 215 nM

IC50 [9]: 7430 nM
IC50 [12]: 17 nM
Compound: CC(=O)N1CCn2c(C3CCOCC3)nc(-c3cccc4nc(-c5ccc(C)nc5)c(C(F)F)cc34)c2C1 [Compound 3, 1-(1-(3-(Difluoromethyl)-2-(6-methylpyridin-3-yl)quinolin-5-yl)-3-(tetrahydro-2H-pyran-4-yl)-5,6-dihydroimidazo[1,5-a]pyrazin-7(8H)-yl)ethan-1-one]
IC50 [4]: 198 nM

half-life at 1 μM [2]: 8.45 h
half-life at 1 μM [3]: 4.35 h
half-life ([7]; mouse, plasma): 0.318 h
clearance [7, 13]: 33.5 mL/min/kg
Vd ([7]; mouse, plasma): 0.822 L/kg
half-life at 1 μM [8]: 86.7 h
Compound: CNC(=O)N1CCn2c(C3CCOCC3)nc(-c3cccc4cc(-c5cnc(C)s5)ncc34)c2C1 [Compound 4, reference compound]
IC50 [4]: 134 nM
